Reference: ChEMBL document CHEMBL5465560, “Selectivity Literature for EUbOPEN Chemogenomic Library” (2024)

Tests used:
[1] = target: STE20-like serine/threonine-protein kinase (Homo sapiens, UniProt Q9H2G2); experiment: Selectivity interaction (Kinase panel (KiNativ target engagement assay in Jurkat cells)) EUB0001635a SLK; format: cell-based; conditions: Selectivity number of off-targets 0.0, Selectivity number of targets 233.0, Source Knowledge https://www.sciencedirect.com/science/article/pii/S2451945619300674?via%3Dihub, at 1 µM
[2] = target: Serine/threonine-protein kinase/endoribonuclease IRE1 (Homo sapiens) (UniProt O75460); experiment: Selectivity interaction (ActivX KiNativ screen (kinase selectivity in THP-1 cell lysates)) EUB0000639a ERN1; format: subcellular; conditions: lysate
[3] = target: Histone-lysine N-methyltransferase ASH1L (Homo sapiens) (UniProt Q9NR48); experiment: Selectivity interaction (Methyltransferase screen (Scintillation proximity assays)) EUB0000255b ASH1L
[4] = target: T1, Ephrin type-B receptor 3 (Homo sapiens) (UniProt P54753); experiment: Selectivity interaction (KinomeScan (DiscoverX)) EUB0000045b EPHB3
T1 sequence (whole entry): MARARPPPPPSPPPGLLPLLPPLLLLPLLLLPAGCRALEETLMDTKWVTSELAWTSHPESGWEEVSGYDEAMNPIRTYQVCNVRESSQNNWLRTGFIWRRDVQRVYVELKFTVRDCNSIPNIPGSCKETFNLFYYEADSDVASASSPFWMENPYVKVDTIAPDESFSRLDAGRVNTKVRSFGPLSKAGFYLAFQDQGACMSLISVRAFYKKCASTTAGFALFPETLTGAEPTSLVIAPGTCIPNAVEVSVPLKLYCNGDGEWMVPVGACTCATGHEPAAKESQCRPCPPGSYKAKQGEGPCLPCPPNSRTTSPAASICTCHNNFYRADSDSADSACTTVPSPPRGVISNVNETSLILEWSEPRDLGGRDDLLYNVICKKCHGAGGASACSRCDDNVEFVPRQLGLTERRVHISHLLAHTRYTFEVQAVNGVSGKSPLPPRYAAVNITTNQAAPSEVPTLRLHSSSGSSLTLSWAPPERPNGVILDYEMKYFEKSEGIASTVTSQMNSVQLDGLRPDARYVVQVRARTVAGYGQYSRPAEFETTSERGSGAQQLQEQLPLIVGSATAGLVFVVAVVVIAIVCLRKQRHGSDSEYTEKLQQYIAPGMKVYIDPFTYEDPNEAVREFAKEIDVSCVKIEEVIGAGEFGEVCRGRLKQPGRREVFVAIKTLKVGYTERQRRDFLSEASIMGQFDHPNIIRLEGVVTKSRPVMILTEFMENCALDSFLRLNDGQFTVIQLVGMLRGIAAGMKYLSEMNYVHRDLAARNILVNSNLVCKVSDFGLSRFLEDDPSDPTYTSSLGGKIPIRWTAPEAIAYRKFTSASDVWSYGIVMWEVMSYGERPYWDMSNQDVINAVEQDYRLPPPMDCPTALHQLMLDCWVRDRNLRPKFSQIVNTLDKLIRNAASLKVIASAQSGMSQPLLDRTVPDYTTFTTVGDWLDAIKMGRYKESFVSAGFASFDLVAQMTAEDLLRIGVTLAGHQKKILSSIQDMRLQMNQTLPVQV

[5] = target: Serine/threonine-protein kinase PAK 6 (Homo sapiens) (UniProt Q9NQU5); experiment: Selectivity interaction (KinomeScan (DiscoverX)) EUB0000045b PAK6
[6] = target: Cyclin-dependent kinase 5 (Homo sapiens, UniProt Q00535); experiment: Selectivity interaction (ActivX KiNativ screen (ex vivo kinase selectivity in human PBMCs)) EUB0001619a CDK5; format: cell-based; conditions: PBMC, at 1 µM
[7] = target: T1, Ephrin type-B receptor 3 (Homo sapiens); experiment: Selectivity interaction (KinomeScan (DiscoverX)) EUB0000655a EPHB3; conditions: at 10 µM
[8] = target: Homeodomain-interacting protein kinase 3 (Homo sapiens, UniProt Q9H422); experiment: Selectivity interaction (KinomeScan (DiscoverX)) EUB0000695a HIPK3; conditions: at 100 nM
[9] = target: Phosphatidylinositol 4-kinase type 2-alpha (Homo sapiens) (UniProt Q9BTU6); experiment: Selectivity interaction (Adapta Assay) EUB0001632a PI4K2A; conditions: at 10 µM
[10] = target: T2, Mitogen-activated protein kinase kinase kinase 2 (Homo sapiens) (UniProt Q9Y2U5); experiment: Selectivity interaction (ProQinase) EUB0000171b MAP3K2
T2 sequence (whole entry): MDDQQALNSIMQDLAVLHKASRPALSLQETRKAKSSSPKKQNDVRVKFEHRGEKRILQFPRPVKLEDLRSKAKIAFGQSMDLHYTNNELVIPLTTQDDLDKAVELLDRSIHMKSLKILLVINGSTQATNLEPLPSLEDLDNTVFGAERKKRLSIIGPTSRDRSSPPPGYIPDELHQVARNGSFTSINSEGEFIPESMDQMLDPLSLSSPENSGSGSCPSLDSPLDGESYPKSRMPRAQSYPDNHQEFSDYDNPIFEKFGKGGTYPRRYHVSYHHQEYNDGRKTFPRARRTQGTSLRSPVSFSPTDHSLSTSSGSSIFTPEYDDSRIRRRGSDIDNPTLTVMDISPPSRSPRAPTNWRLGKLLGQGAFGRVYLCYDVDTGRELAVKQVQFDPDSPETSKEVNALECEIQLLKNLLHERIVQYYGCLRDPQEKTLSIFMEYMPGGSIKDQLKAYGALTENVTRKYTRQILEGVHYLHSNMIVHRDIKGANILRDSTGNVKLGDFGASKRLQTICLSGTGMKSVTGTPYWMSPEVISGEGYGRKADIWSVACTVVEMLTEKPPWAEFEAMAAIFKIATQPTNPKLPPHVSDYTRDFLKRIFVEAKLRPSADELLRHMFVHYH

Chain of Serine/threonine-protein kinase/endoribonuclease IRE1 (Homo sapiens) (O75460 19-977 limits assumed): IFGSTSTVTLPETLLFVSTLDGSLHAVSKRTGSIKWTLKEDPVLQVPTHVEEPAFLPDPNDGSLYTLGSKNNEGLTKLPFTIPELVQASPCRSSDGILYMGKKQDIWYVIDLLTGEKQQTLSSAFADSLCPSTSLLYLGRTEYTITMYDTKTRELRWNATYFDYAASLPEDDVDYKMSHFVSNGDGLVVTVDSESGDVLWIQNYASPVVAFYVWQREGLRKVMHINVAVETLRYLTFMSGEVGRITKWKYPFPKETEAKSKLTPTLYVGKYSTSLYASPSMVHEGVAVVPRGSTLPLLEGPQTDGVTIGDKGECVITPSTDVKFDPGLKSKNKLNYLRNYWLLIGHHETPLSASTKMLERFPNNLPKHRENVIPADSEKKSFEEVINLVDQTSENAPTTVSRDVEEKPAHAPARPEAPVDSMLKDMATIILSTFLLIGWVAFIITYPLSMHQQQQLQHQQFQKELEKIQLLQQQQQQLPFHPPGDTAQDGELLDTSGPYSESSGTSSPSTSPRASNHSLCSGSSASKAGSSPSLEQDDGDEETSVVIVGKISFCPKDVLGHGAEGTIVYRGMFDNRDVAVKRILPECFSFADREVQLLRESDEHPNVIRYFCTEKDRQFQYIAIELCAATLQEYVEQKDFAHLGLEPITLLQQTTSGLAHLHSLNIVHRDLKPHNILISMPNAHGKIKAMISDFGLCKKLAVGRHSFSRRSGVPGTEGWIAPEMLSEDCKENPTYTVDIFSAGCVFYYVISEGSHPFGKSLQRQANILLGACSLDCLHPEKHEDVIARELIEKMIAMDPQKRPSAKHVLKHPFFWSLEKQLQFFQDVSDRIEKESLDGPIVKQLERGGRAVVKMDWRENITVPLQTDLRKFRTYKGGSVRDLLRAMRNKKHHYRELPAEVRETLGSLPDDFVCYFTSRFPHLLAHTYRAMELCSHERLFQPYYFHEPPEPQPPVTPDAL
Chain of Serine/threonine-protein kinase PAK 6 (Homo sapiens) (Q9NQU5 whole entry, looked up): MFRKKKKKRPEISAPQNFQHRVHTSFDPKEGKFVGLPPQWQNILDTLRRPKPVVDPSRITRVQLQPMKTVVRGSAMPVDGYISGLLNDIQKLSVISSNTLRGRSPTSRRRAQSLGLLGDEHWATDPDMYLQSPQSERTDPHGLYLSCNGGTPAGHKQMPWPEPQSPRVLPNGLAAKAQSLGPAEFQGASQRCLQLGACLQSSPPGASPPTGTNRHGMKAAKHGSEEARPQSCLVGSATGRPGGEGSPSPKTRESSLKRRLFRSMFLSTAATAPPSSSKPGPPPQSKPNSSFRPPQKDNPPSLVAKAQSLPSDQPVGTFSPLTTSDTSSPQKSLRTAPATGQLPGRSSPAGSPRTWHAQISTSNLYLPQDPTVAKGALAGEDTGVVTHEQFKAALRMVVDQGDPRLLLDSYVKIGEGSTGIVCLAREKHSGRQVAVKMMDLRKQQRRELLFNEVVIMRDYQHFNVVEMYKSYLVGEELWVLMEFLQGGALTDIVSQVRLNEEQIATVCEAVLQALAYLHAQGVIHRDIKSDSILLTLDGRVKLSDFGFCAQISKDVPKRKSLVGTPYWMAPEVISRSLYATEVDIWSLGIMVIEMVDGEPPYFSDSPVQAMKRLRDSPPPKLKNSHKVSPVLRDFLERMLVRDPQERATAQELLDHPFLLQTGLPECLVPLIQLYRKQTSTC
Chain of Cyclin-dependent kinase 5 (Q00535 whole entry, looked up): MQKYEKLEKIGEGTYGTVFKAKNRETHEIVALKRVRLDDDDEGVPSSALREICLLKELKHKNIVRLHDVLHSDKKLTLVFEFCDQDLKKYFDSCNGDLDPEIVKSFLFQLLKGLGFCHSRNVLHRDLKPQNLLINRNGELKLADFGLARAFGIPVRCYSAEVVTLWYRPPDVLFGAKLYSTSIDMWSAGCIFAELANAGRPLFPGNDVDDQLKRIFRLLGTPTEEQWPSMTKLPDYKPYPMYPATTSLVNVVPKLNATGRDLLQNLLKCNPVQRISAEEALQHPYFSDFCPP
Chain of Phosphatidylinositol 4-kinase type 2-alpha (Homo sapiens) (Q9BTU6 whole entry): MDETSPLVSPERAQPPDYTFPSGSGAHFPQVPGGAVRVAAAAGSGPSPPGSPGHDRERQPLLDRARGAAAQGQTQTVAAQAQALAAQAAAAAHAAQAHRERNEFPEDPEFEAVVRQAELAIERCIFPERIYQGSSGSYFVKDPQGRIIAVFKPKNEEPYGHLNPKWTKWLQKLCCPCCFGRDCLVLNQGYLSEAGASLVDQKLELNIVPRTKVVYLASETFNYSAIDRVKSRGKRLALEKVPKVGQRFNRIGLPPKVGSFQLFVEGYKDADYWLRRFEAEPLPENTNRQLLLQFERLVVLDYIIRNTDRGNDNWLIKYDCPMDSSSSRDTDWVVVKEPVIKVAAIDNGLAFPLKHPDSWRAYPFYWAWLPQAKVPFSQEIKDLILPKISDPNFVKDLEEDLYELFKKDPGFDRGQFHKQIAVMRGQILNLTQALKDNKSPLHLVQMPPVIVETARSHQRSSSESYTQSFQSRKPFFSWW
Chain of STE20-like serine/threonine-protein kinase (Q9H2G2 whole entry, looked up): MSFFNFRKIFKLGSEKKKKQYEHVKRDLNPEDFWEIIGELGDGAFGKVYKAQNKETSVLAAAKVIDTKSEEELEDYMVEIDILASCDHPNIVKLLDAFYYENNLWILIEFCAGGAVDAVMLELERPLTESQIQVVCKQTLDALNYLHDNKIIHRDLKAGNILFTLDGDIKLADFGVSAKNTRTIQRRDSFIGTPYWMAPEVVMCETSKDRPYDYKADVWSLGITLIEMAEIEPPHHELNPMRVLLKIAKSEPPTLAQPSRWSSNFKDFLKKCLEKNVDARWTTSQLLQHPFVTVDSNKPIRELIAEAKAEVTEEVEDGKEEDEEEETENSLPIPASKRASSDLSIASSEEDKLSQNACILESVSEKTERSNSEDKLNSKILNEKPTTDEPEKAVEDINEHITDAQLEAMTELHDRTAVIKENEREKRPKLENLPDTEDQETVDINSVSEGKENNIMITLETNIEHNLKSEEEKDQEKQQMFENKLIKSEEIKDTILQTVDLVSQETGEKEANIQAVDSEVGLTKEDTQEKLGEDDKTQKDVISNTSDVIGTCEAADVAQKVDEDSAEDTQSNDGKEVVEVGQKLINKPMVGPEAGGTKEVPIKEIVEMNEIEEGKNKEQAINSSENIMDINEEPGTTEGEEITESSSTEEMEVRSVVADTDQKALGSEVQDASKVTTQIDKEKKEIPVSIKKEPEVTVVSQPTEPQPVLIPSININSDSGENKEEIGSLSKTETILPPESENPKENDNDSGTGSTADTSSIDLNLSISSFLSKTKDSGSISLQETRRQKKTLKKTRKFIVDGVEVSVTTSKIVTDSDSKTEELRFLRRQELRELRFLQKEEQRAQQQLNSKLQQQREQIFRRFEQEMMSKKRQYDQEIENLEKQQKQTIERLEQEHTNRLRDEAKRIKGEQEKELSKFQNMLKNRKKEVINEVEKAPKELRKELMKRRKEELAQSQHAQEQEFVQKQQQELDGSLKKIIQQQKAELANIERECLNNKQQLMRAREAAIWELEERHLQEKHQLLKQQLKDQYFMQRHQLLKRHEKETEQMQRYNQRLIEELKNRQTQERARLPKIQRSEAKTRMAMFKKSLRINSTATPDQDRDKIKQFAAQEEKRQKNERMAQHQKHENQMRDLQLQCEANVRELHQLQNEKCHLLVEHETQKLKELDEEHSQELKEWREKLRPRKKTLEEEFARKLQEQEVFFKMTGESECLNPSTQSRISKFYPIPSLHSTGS
Chain of Homeodomain-interacting protein kinase 3 (Q9H422 whole entry, looked up): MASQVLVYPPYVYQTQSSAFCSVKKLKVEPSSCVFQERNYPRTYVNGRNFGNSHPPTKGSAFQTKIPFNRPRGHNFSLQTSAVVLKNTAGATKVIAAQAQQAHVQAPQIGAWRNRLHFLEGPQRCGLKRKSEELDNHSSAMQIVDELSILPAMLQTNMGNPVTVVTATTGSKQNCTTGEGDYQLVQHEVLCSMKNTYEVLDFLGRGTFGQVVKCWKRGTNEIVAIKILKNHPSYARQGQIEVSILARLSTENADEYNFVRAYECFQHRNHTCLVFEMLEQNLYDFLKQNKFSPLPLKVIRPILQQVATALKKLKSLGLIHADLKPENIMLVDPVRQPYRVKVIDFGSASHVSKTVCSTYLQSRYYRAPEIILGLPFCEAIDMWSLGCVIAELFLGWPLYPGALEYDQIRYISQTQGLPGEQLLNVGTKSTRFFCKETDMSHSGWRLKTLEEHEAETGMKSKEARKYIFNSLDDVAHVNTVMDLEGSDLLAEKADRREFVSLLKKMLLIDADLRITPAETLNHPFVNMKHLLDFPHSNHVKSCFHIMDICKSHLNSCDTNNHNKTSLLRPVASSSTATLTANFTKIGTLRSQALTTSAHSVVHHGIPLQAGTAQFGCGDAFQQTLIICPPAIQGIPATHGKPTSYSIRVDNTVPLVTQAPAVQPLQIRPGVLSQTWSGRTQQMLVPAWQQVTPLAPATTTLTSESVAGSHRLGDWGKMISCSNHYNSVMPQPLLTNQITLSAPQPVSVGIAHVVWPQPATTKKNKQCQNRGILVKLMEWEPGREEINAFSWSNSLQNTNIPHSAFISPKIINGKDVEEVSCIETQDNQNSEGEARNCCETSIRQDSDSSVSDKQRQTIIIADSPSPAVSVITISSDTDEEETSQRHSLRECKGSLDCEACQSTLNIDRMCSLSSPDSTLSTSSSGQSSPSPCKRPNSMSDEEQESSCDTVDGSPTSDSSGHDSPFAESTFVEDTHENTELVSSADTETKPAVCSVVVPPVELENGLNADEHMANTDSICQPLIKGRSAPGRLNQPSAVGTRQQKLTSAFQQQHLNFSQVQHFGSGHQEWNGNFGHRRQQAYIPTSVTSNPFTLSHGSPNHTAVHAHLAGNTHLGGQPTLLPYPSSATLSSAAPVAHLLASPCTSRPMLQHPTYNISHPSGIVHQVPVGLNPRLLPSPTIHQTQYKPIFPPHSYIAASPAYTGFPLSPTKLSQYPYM

Compound: C=CC(=O)Nc1ccc(C(=O)Nc2[nH]nc3c2CN(C(=O)N[C@H](CN(C)C)c2ccccc2)C3(C)C)cc1
- % of engagement [1]: 13%

Compound: CC[C@@H]1[C@H](F)C(=O)N[C@@H]1COc1nccc2cc(C(N)=O)c(OC)cc12 [ZIMLOVISERTIB]
- % of inhibition ([2]; at 0.01 µM): -5.9%
- % of inhibition ([2]; at 0.04 µM): -16.2%
- % of inhibition ([2]; at 0.2 µM): -1.2%
- % of inhibition ([2]; at 1 µM): -2.9%
- % of inhibition ([2]; at 5 µM): -24%

Compound: COCCN1CCC(c2cc(CN(C)C(=O)c3cccc(Oc4ccccc4)c3)ccn2)CC1
- % activity ([3]; at 1 µM): > 95%
- % activity ([3]; at 10 µM): > 90%

Compound: C=CC(=O)Nc1cc(-n2c(=O)ccc3cnc4ccc(-c5ccc(NS(C)(=O)=O)cc5)cc4c32)ccc1C
- % of control ([4]; at 1 µM): 83%
- % of control ([4]; at 10 µM): 88%
- % of control ([5]; at 1 µM): 100%
- % of control ([5]; at 10 µM): 73%

Compound: N#Cc1cccc(-c2c[nH]c3ncnc(N4CCOCC4)c23)c1
- % of inhibition [6]: 0%

Compound: CN(C)CCOc1ccc(-c2nc(-c3ccncc3)c(-c3ccc4c(c3)CC/C4=N\O)[nH]2)cc1
- % of control [7]: 100%

Compound: Cc1cc(F)c(C(=O)Nc2cccc(-c3nncn3C(C)C)n2)cc1-n1cnc(C2CC2)c1
- % of control [8]: 100%

Compound: Cn1cc(-n2cnc3c(NCc4nc5cc(Cl)c(Cl)cc5[nH]4)nc(N4CCOCC4)nc32)cn1
- % of inhibition [9]: 1.38%

Compound: C=CC(=O)Nc1cccc(C(=O)Nc2ccc(Nc3cc(-c4[nH]c(SC)nc4C)ccn3)cc2)c1
- % of control ([10]; at 1 µM): 99%
- % of control ([10]; at 5 µM): 88%
